Assay results as given in US9387231B2, “Compositions comprising a Brd4 antagonist and methods for the treatment of HIV” (THE CHILDREN'S HOSPITAL OF PHILADELPHIA, priority 2011, dated 2016).

How the values were obtained:
Type in all cases: cell-based
[1] = test system: HIV LTR; test: Reactivation of the HIV LTR in latently infected J-Lat clones (GFP by flow cytometry); conditions: J-Lat clones, TNFα 20 ng/ml or PHA 1.5 μg/ml, 16 hours
Experimental: (§1) GFP expression was measured by flow cytometry. FIGS. 3B and 3C shown the percentage of cells positive for GFP (FIG. 3B) and the mean MFI of GFP (FIG. 3C) in latently infected cell lines, J-Lat clones 82, A72, A7, A2, and A1, at 16 hours after TNFα or PHA was added in the cultures in the presence of JQ1(+) or JQ1(−). […] GFP expression in cells was measured by flow cytometry and is indicated as percent of GFP+ cells in gated live cell populations. An average of 5 experiments is shown. * p<0.05, ** p<0.01, *** p<0.001. […] Average of 3 experiments is shown. * p<0.05. For FIG. 3F, J-Lat A2 and A72 cells were reactivated with TNFα (20 ng/ml) or HIV Tat protein (50 μg/ml) in the presence of JQ1(+) or JQ1(−) for 16-18 hours, and GFP expression in cells was measured by flow cytometry. One representative experiment is shown. In each dot plot, non-underlined numbers indicate percentage of GFP+ cells and underlined numbers indicate mean fluorescence of GFP (MFI).
(§2) Next, the effect of JQ1 on activation of the HIV LTR was tested using a latently infected Jurkat-derived cell clone, J-Lat clone A2. GFP expression in J-Lat clone A2 is induced upon reactivation with tumor necrosis factor-alpha (TNFα) or phytohaemagglutinin (PHA).
To further study the mechanism of how JQ1 drives reactivation of HIV latency, HIV latently infected T-cell lines—J-Lat clones A1, A2, A7, and A72—were utilized. The effect of JQ1(+) on reactivation of HIV latency in these cell lines were confirmed. TNFα (20 ng/ml) or PHA (1.5 μg/ml) was added to cultures of J-Lat clones in the presence of 1 μM JQ1(+) or JQ1(−). After 16 hours, expression of GFP was measured by flow cytometry. […] In the presence of HIV Tat, BET antagonism enhances Tat-driven transcription of the HIV LTR in J-Lat clones A2 and A72 (FIG. 3F; underlined numbers indicate mean GFP fluorescence, non-underlined numbers indicate percent of GFP+ cells). […] Displacement of Brd4 from chromatin by JQ1(+) may cause conformational change in the chromatin, exposing NF-κb binding sites, leading to increased HIV transcription and reactivation of latency.

[2] = test system: HIV-1 NL43; test: Viral integration in primary resting CD4 T-cells by Alu-PCR; conditions: NL43, 1 μM, T48 h
Experimental: To determine if JQ1(+) affects viral integration in primary resting CD4 T-cells, the cells were purified and infected with HIV-1 NL43 or mock control. The infected cells were then cultured in the presence of 1 μM of JQ1(+) or JQ1(−) for 48 hours. Cell pellets were collected at 0 hours and 48 hours after infection. DNA was isolated and the viral integration in resting CD4 T-cells was measured by Alu-PCR.

[3] = test system: HIV-1 LTR promoter; test: Activation of the HIV LTR in CEMss LTR-GFP reporter cells (GFP by flow cytometry); conditions: CEMss LTR-GFP cells, 8 μg/ml HIV-1 Tat alone
Experimental: CEMss LTR-GFP cells were infected with NL43 and cultured in the presence of the BET antagonists JQ1(+) (1 μM) or the control enantiomer JQ1(−). GFP expression in cells was examined by flow cytometry. A representative of three experiments is shown. FIG. 2B provides a graph showing GFP expression in cells when cultured with different amounts of JQ1, as determined by flow cytometry. 0.25 μM of JQ1(+) was sufficient to dramatically increase the expression of GFP in NL43 infected CEMss LTR-GFP cells. FIGS. 2C and 2D show percentage of GFP expression (FIG. 2C) and mean fluorescence of GFP (MFI; FIG. 2D) in CEMss LTR-GFP cells cultured in the presence of JQ1(+) or JQ1(−) (1 μM), and different amount of HIV-1 Tat. FIG. 2E provides dot plots of CEMss LTR-GFP cells were cultured with increasing amounts of HIV Tat (0, 8, 16 or 32 μg/ml) in the presence of JQ1(+) or JQ1(−) (1 μM) for 1 day. Non-underlined numbers indicate percentage of GFP and underlined numbers indicate mean fluorescence of GFP (MFI).
as §1
BET antagonists also drive activation of the HIV LTR. Specifically, the effects of JQ1 on transcription from the HIV LTR were tested. CEMss LTR-GFP cells (a reporter cell line stably transfected with GFP under the control of the HIV-1 LTR promoter) were infected with NL43 and cultured in the presence of BET antagonists or controls. GFP expression was measured at days 0, 1, 2, 3, and 6 post-infection. GFP expression was higher in the presence of the BET inhibitor (JQ1) compared to controls (FIG. 2A). Further, by varying the amount of JQ1, it was determined that 0.25 μM of JQ1(+) was sufficient to dramatically increase Tat-driven HIV-1 transcription (FIG. 2B). CEMss LTR-GFP cells were also cultured in the presence of JQ1(+) or JQ1(−) (1 μM) and different amount of HIV-1 Tat (0-32 μg/ml). […] FIG. 2E provides dot plots of the experiments.
as §2

With TNFα the “GFP expression (reactivation of latently infected cells)” value [1] was “induced GFP expression”.

Cc1sc2c(c1C)C(c1ccc(Cl)cc1)=N[C@@H](CC(=O)OC(C)(C)C)c1nnc(C)n1-2 [JQ1(−)] was tested, and the provirus/cell ([2]; Exp. 1, primary resting CD4 T-cells) was 0.527 ± 0.064 provirus/cell and the provirus/cell ([2]; Exp. 2, primary resting CD4 T-cells) was 0.400 ± 0.0009 provirus/cell.

B1: HIV-1 Tat: HIV Tat protein added to reporter cell cultures (protein, UniProt P04608 1-86, looked up)
Protein Tat: MEPVDPRLEPWKHPGSQPKTACTNCYCKKCCFHCQVCFITKALGISYGRKKRRQRRRAHQNSQTHQASLSKQPTSQPRGDPTGPKE
With B1 the “Expression of GFP (percentage)” value [3] was “activated”.
